Measurements taken from patent publication US20010055565A1, “Method of detecting cyclooxygenase-2” (G.D. Searle & Co., priority 1995, published 2001).

| melting point | SMILES |
| --- | --- |
| 192.3 to 193.3 °C | COc1ccc(-c2cc(CO)nn2-c2ccc(S(N)(=O)=O)cc2)cc1I [Example 5, 4-[3-(Hydroxymethyl)-5-(3-iodo-4-methoxyphenyl)-1H-pyrazol-1-yl]benzenesulfonamide] |
| 184.2 to 188.4 °C | COc1ccc(-c2cc(C(F)F)nn2-c2ccc(S(N)(=O)=O)cc2)cc1I [Example 6, 4-[3-(Difluoromethyl)-5-(3-iodo-4-methoxyphenyl)-1H-pyrazol-1-yl]benzenesulfonamide] |
| 183.1 to 185.6 °C | COc1ccc(-c2cc(C(F)(F)F)nn2-c2ccc(S(N)(=O)=O)cc2)cc1I [Example 7, 4-[5-(3-Iodo-4-methoxyphenyl)-3-trifluoromethyl-1H-pyrazol-1-yl]benzenesulfonamide] |
